Square brackets hold non-standard residues; d marks the D form. Ends that are not written are not given here.
Columns and labels:
PRRSV [1] = test: dynamic viremia after vaccination in pigs; settings: pig, in vivo
Protocol: (§1) A stock solution of h9e peptide (concentration 1.75% by weight in water) was prepared. For the active agent, 2X Ingelvac PRRS MLV (Boehringer Ingelheim Vetmedica, St. Joseph, Mo.) was used. The vaccine was rehydrated by adding half of the contents of the accompanying liquid diluent to the vial containing the virus. Medium was then prepared by adding 0.3 ml bovine serum to 7.2 ml MEM medium (ion source). Next, 5 ml of the peptide stock solution was added to the medium and mixed well. This was then mixed with the vaccine solution. The final concentration of h9e as adjuvant was 0.35% by weight, and the final concentration of serum was […] by weight.
(§2) Vaccines were also prepared using a commercially-available adjuvant, Montanide™ Gel 01 (aqueous polymeric gel veterinary adjuvant, Seppic Inc., Fairfield, N.J.), or a published peptide hydrogel, designated herein as A1/2 (SEQ ID NO:28, corresponding to the N-terminal region of mineral directing gelator (MDG) 1; Gungormus, et al., Biomaterials 31 (2010) 7266-7274).
(§3) 55 PRRSV serum negative pigs were initially divided into 5 vaccination groups and vaccinated on Day 0. […]
(§4) At Day 0, all pigs were weighed, and weight was monitored weekly and recorded on Days 7, 14, 21, and 28. […] Body temperature and clinical signs were monitored daily and recorded. […]

PRRSV [2] = test: dynamic viremia after challenge in pigs; format: in vivo; settings: challenge with VR2332 or MN184a on day 28
Protocol: as §1, §2, §3, §4

PRRSV [3] = test: IDEXX ELISA Ab titer in pigs; format: in vivo
Protocol: as §1, §2, §3, §4

[4] = solubility, stability and morphology of peptide and hydrogel; format: physicochemical; settings: for solubility of peptide in water: until pH adjusted to neutral or basic
[5] = rheology of peptide hydrogels (storage modulus G', amplitude sweep, temperature profile); format: physicochemical
Protocol: (§5) The synthesized peptide was dissolved in DI water to a concentration of 5 mM by adjusting the pH to 8.0-10.0 with 1 M NaOH (Sigma). The h5e acidic solution and acidic h9e hydrogel were made by adjusting the pH to 4.0 with 1 M HCl (Sigma). The h9e Ca^2+ hydrogel was prepared by adding CaCl2 to a basic h9e peptide solution (molar ratio of peptide and Ca^2+ was 1:10, final pH was 7.0 to 9.0). The same method was used to prepare the h5e Ca^2+ solution.
The storage, G′, and loss, G″, moduli of h9e acidic and Ca^2+ hydrogels were determined on a rheometer system C-VOR 150 (Malvern instruments, Malvern, Worcestershire WR141XZ, United Kingdom) with a 20-mm diameter parallel plate geometry through frequency sweep (strain 1%, frequency 0.01 to 10 Hz, temperature 25° C.), amplitude sweep (strain 1 to 500%, frequency 1 Hz, temperature 25° C.), and temperature profile (strain 1%, frequency 1 Hz, Temperature 5° C., 20° C., 37° C., 50° C., 75° C., and 90° C.) measurements. The multiple amplitude sweep experiments were conducted to test the moduli recovery of peptide hydrogels. The time gap between every two tests was 10, 30, and 60 seconds for h9e Ca^2+ hydrogel.

[6] = hydrogel formation of peptide solutions (ion or pH trigger); format: physicochemical; settings: 0.005M peptide concentration
Protocol: as §5

**Q.** Which “viremia after vaccination compared to the MLV group” value (PRRSV [1]) does the source give for “A1/2: published peptide hydrogel, N-terminal region of mineral directing gelator (MDG) 1 (VKVKVKVKVPPTKVEVKVKV; Derivative of N-terminal region of mineral directing gelator (MDG) 1)” here?
**A.** Its value is “no difference”.

**Q.** And the viremia after challenge (PRRSV [2])?
**A.** The viremia after challenge was “not”.

**Q.** What about the “ELISA Ab titer after vaccination, compared among groups” value (PRRSV [3]) of the same substance?
**A.** The value was “lowest”.

**Q.** For FLIVIGPGGDGPGGD [h5e, FLIVIGPGGDGPGGD], which “solubility of peptide in water” value [4] is on record?
**A.** Its value is “insoluble in water”.

**Q.** For “FLIVIGSIIGPGGDGPGGD [h9e, FLIVIGSIIGPGGDGPGGD]”, which “temperature stability of hydrogel” value [4] is on record?
**A.** The value was “up to 90 °C”.

**Q.** What about the “water solubility of hydrogel” value [4] of the same substance?
**A.** The value was “water soluble”.

**Q.** What about the “solubility of peptide in water” value [4] of the same substance?
**A.** Its value is “insoluble in water”.

**Q.** And the “general health / biological safety” value (immunized mice until sera collection)?
**A.** The value was “biologically safe”.

**Q.** And the “injection site reaction (redness or swelling)” value (vaccinated mice)?
**A.** Its value is “No injection site reaction”.

**Q.** For “FLIVIGSIIKKKKKKKKKK (Synthetic peptide adjuvant) [h9e variant with eD2 region replaced by K10]”, which “G' of hydrogel in basic pH” value [5] is on record?
**A.** The value was 55.0 ± 0.9 Pa.

**Q.** Which “hydrogel formation in Ca^2+ solution” value [6] does the source give for “GPGGDGPGGD (Hydrophilic region derived from spider flagelliform silk protein) [eD2]” here?
**A.** Its value is “not able to form hydrogels”.

**Q.** Which “hydrogel formation in Ca^2+ solution” value [6] does the source give for “L5GSIIK10: L5K10 diblock peptide with GSII inserted (LLLLLGSIIKKKKKKKKKK)” here?
**A.** Its value is “no hydrogel formation was observed”.

**Q.** With “L5PP^DK10: L5K10 diblock peptide with sharp turning segment PP^D inserted (LLLLLP[dP]KKKKKKKKKK)” as the substance, how does the “hydrogel formation in Ca^2+ solution” value [6] read?
**A.** Its value is “no hydrogel formation was observed”.

**Q.** With “LLLLLKKKKKKKKKK (Synthetic diblock peptide) [L5K10]” as the substance, how does the “hydrogel formation in Ca^2+ solution” value [6] read?
**A.** Its value is “no hydrogel formation was observed”.
